Literature values in patent US20050004032A1, “Collagen mimics” (priority 2003, published 2005).

Substance | Tm, temperature at the midpoint of the thermal transition as measured by CD spectroscopy (literature values per Table 1 footnotes b-f, some reported for the 10-repeat peptides) | melting temperature of a triple helix (Sakakibara et al. 1973)
(ProProGly)7 | 6-7^c ° C. | 
(ProProGly)10 |  | 24 °C
